Converted amounts (≈) assume the structure as drawn. Where two headings read alike, the source gives them in different places.
Assays:
[1] = tested on: Bacillus subtilis ATCC 6633; assay: Antibacterial MIC, microdilution susceptibility test (CLSI); format: cell-based
Excerpt: (§1) The synthesized linezolid conjugates (3a–k, 5a–f, 7a–c, 9a–c, 11a–f, 13, and 15) were subjected for antimicrobial properties determination against Gram-positive (Staphylococcus aureus ATCC 6538, Bacillus subtilis ATCC 6633) and Gram-negative (Pseudomonas aeruginosa ATCC 15692, Escherichia coli ATCC 47076) bacteria by the standard technique.
(§2) Antibacterial properties of the synthesized compounds (3a–k, 5a–f, 7a–c, 9a–c, 11a–f, 13 and 15) were screened against Gram-positive (Staphylococcus aureus ATCC 6538, Bacillus subtilis ATCC 6633) and Gram-negative (Pseudomonas aeruginosa ATCC 15,692 and Escherichia coli ATCC 47076) bacteria utilizing the standard technique. Linezolid was used as a standard reference/drug in the current study. The tested bacterial strains were obtained from MERCIN Center, Faculty of Agriculture, Ain Shams University, Cairo, Egypt.
(§3) To determine the antibacterial activity, stock solutions of the tested compounds and standard reference were prepared with up to 100% DMSO and stored at […]. If necessary, the solutions were heated to 40–60 °C before testing to facilitate complete dissolution. Double distilled water was used in all dilutions prepared. […] A microdilution susceptibility test was used for MIC determination (Mueller–Hinton broth in 96-well plates) according to the CLSI (the Clinical and Laboratory Standards Institute, Malvern, PA, USA). The bacterial inoculum was adjusted to approximately 2.5–3 × 10^4 cells/mL in Mueller–Hinton broth and incubated in a ratio of 1:1 with the test derivatives in polystyrene 96-well flat-bottom microplates. Positive growth control (without test derivatives) and negative control (without bacteria) were included. The microplates were placed in an incubator set to 37 °C for 24 h. Absorbance was measured at 620 nm at the end of the incubation period. The cut-off level for follow-up studies was defined as a minimum of 90% inhibition of growth compared to the untreated sample. Experiments were conducted once in triplicate. For selected compounds, minimum inhibitory concentration (MIC) values were determined by dose–response experiments. Experiments were performed at least twice, in triplicate per concentration tested.

[2] = tested on: Escherichia coli ATCC 47076; assay: as above; format: cell-based
Excerpt: as §1, §2, §3

[3] = tested on: Pseudomonas aeruginosa ATCC 15692; assay: as above; format: cell-based
Excerpt: as §1, §2, §3

[4] = tested on: Staphylococcus aureus ATCC 6538; assay: as above; format: cell-based
Excerpt: as §1, §2, §3

[5] = tested on: Bacillus subtilis ATCC 6633; assay: microbe, parasite or virus in culture; set-up: species or system bacteria; Broth microdilution MIC in Mueller-Hinton broth, absorbance at 620 nm; settings: ATCC6633, 24 h, read-out: Observed MIC, uM (B. subtilis)
Excerpt: as §3, with “Antibacterial properties of the synthesized compounds (3a–k, 5a–f, 7a–c, 9a–c, 11a–f, 13 and 15) were screened against Gram-positive (Staphylococcus aureus ATCC 6538, Bacillus subtilis ATCC 6633) and Gram-negative (Pseudomonas aeruginosa ATCC 15,692 and Escherichia coli ATCC 47076) bacteria utilizing the standard technique. Linezolid was used as a standard reference/drug in the current study. The tested bacterial strains were obtained from MERCIN Center, Faculty of Agriculture, Ain Shams University, Cairo, Egypt. To” for “To”

[6] = tested on: Staphylococcus aureus ATCC 6538; assay: microbe, parasite or virus in culture; set-up: species or system bacteria; Broth microdilution MIC in Mueller-Hinton broth, absorbance at 620 nm; settings: ATCC6538, 24 h, read-out: Observed MIC, uM (S. aureus)
Excerpt: as §3, with “Antibacterial properties of the synthesized compounds (3a–k, 5a–f, 7a–c, 9a–c, 11a–f, 13 and 15) were screened against Gram-positive (Staphylococcus aureus ATCC 6538, Bacillus subtilis ATCC 6633) and Gram-negative (Pseudomonas aeruginosa ATCC 15,692 and Escherichia coli ATCC 47076) bacteria utilizing the standard technique. Linezolid was used as a standard reference/drug in the current study. The tested bacterial strains were obtained from MERCIN Center, Faculty of Agriculture, Ain Shams University, Cairo, Egypt. To” for “To”

[7] = Bacillus subtilis, ATCC6633, 24 h, Mueller–Hinton broth, 37 °C, 24 h, read-out: MIC, μg/mL ± SE, B. Subtilis (ATCC 6633)
[8] = ATCC47076, Mueller–Hinton broth, 37 °C, 24 h, read-out: MIC, μg/mL ± SE, E. Coli (ATCC 47076)
[9] = ATCC47076, value in parentheses, read-out: MIC (μmol), E. Coli (ATCC 47076) (converted)
[10] = ATCC15692, Mueller–Hinton broth, 37 °C, 24 h, read-out: MIC, μg/mL ± SE, P. Aeruginosa (ATCC 15692)
[11] = ATCC15692, value in parentheses, read-out: MIC (μmol), P. Aeruginosa (ATCC 15692) (converted)
[12] = Staphylococcus aureus, ATCC6538, 24 h, Mueller–Hinton broth, 37 °C, 24 h, read-out: MIC, μg/mL ± SE, S. Aureus (ATCC 6538)
[13] = Bacillus subtilis, ATCC6633, as quoted in running text, read-out: MIC against B. subtilis
[14] = Bacillus subtilis, ATCC6633, value in parentheses, read-out: MIC (μmol), B. Subtilis (ATCC 6633) (converted)
[15] = Staphylococcus aureus, ATCC6538, as quoted in running text, read-out: MIC against S. aureus
[16] = Staphylococcus aureus, ATCC6538, value in parentheses, read-out: MIC (μmol), S. Aureus (ATCC 6538) (converted)

Row | MIC [1, 13] | MIC [1, 14] | MIC ([1]; read-out: MIC against B. subtilis) | MIC [4, 15] | MIC [4, 16] | MIC ([4]; read-out: MIC against S. aureus) | MIC ([3]; ATCC15692, read-out: MIC against P. aeruginosa) | SMILES | MIC [1, 7] | MIC [2, 8] | MIC [2, 9] | MIC [3, 10] | MIC [3, 11] | MIC [4, 12] | MIC [5] | MIC [6]
1 |  |  |  |  |  |  |  | O=C(CNC(=O)OCc1ccccc1)NC[C@H]1CN(c2ccc(N3CCOCC3)c(F)c2)C(=O)O1 [Compound 3a, Benzyl (S)-(2-(((3-(3-fluoro-4-morpholinophenyl)-2-oxooxazolidin-5-yl)methyl)amino)-2-oxoethyl)carbamate] | 4 ± 0.3 µg/mL | 32 ± 1 µg/mL | 65.8 µM | 64 ± 1.4 µg/mL | 132 µM | 16 ± 2.1 µg/mL | 8.22 µM (≈ 4 µg/mL) | 32.9 µM (≈ 16 µg/mL)
2 |  |  |  |  |  |  |  | CS(=O)(=O)c1ccc(CNC[C@H]2CN(c3ccc(N4CCOCC4)c(F)c3)C(=O)O2)cc1 [Compound 11b, (S)-3-(3-Fluoro-4-morpholinophenyl)-5-[{(4-(methylsulfonyl)benzyl}amino]methyl) oxazolidin-2-one] | 32 ± 1.4 µg/mL | 32 ± 1.1 µg/mL | 69 µM | 64 ± 2.8 µg/mL | 138 µM | 32 ± 1.2 µg/mL | 69 µM (≈ 32 µg/mL) | 69 µM (≈ 32 µg/mL)
3 |  |  |  |  |  |  |  | CSCC[C@H](NC(=O)OC(C)(C)C)C(=O)NC[C@H]1CN(c2ccc(N3CCOCC3)c(F)c2)C(=O)O1 [Compound 3i, Tert-butyl ((S)-1-((((S)-3-(3-fluoro-4-morpholinophenyl)-2-oxooxazolidin-5-yl)methyl)amino)-4-(methylthio)-1-oxobutan-2-yl)carbamate] | 32 ± 1.4 µg/mL | 32 ± 0.5 µg/mL | 60.8 µM | 32 ± 0.8 µg/mL | 60.8 µM | 32 ± 2.1 µg/mL | 60.8 µM (≈ 32 µg/mL) | 60.8 µM (≈ 32 µg/mL)
4 |  |  |  |  |  |  |  | C[C@H](NC(=O)OCc1ccccc1)C(=O)NC[C@H]1CN(c2ccc(N3CCOCC3)c(F)c2)C(=O)O1 [Compound 3b, Benzyl ((S)-1-((((S)-3-(3-fluoro-4-morpholinophenyl)-2-oxooxazolidin-5-yl)methyl)amino)-1-oxopropan-2-yl)carbamate] | 32 ± 2.1 µg/mL | 32 ± 2.5 µg/mL | 63.9 µM | 64 ± 1.9 µg/mL | 128 µM | 32 ± 1.5 µg/mL | 63.9 µM (≈ 32 µg/mL) | 63.9 µM (≈ 32 µg/mL)
5 | 2.33 to 2.5 µM | 2.4 µM | 2.396 µM | 9.34 to 10 µM | 9.58 µM | 9.583 µM |  | O=C(NC[C@H]1CN(c2ccc(N3CCOCC3)c(F)c2)C(=O)O1)c1ccc(F)cc1 [Compound 5b, (S)-4-Fluoro-N-((3-(3-fluoro-4-morpholinophenyl)-2-oxooxazolidin-5-yl)methyl) benzamide] | 1 ± 0.1 µg/mL | 32 ± 2.4 µg/mL | 76.7 µM | 32 ± 1.2 µg/mL | 76.7 µM | 4 ± 0.1 µg/mL |  | 
6 |  |  |  |  |  |  |  | O=C1O[C@@H](CNCc2ccc(F)cc2)CN1c1ccc(N2CCOCC2)c(F)c1 [Compound 11a, (S)-3-(3-Fluoro-4-morpholinophenyl)-5-[{(4-fluorobenzyl)amino}methyl] oxazolidin-2-one] | 32 ± 1.2 µg/mL | 32 ± 2.5 µg/mL | 79.3 µM | 32 ± 2.2 µg/mL | 79.3 µM | 32 ± 2.7 µg/mL | 79.3 µM (≈ 32 µg/mL) | 79.3 µM (≈ 32 µg/mL)
7 |  |  |  |  |  |  |  | CC[C@H](C)[C@H](NC(=O)OC(C)(C)C)C(=O)NC[C@H]1CN(c2ccc(N3CCOCC3)c(F)c2)C(=O)O1 [Compound 3k, Tert-butyl ((2S,3S)-1-((((S)-3-(3-fluoro-4-morpholinophenyl)-2-oxooxazolidin-5-yl)methyl)amino)-3-methyl-1-oxopentan-2-yl)carbamate] | 32 ± 1.3 µg/mL | 32 ± 2.1 µg/mL | 62.9 µM | 32 ± 1.3 µg/mL | 62.9 µM | 32 ± 2.1 µg/mL | 62.9 µM (≈ 32 µg/mL) | 62.9 µM (≈ 32 µg/mL)
8 |  |  |  |  |  |  |  | O=C1O[C@@H](CNCCCO[N+](=O)[O-])CN1c1ccc(N2CCOCC2)c(F)c1 [Compound 13, (S)-3-[{(3-(3-Fluoro-4-morpholinophenyl)-2-oxooxazolidin-5-yl)methyl}amino] propyl nitrate] | 32 ± 0.9 µg/mL | 32 ± 0.6 µg/mL | 80.3 µM | 32 ± 1.5 µg/mL | 80.3 µM | 32 ± 1 µg/mL | 80.3 µM | 80.3 µM
9 | 2.25 µM | 2.25 µM |  | 4.5 µM | 4.5 µM |  |  | O=C(NC[C@H]1CN(c2ccc(N3CCOCC3)c(F)c2)C(=O)O1)c1ccc([N+](=O)[O-])cc1 [Compound 5d, (S)-N-((3-(3-Fluoro-4-morpholinophenyl)-2-oxooxazolidin-5-yl)methyl)-4-nitro benzamide] | 1 ± 0.1 µg/mL | 32 ± 2.2 µg/mL | 72 µM | 32 ± 1.6 µg/mL | 72 µM | 2 ± 0.1 µg/mL |  | 
10 |  |  |  |  |  |  |  | CSCC[C@H](NC(=O)OCc1ccccc1)C(=O)NC[C@H]1CN(c2ccc(N3CCOCC3)c(F)c2)C(=O)O1 [Compound 3d, Benzyl ((S)-1-((((S)-3-(3-fluoro-4-morpholinophenyl)-2-oxooxazolidin-5-yl)methyl)amino)-4-(methylthio)-1-oxobutan-2-yl)carbamate] |  | 32 ± 2 µg/mL | 57.1 µM | 64 ± 3.1 µg/mL | 114 µM | 32 ± 1.6 µg/mL | 57.1 µM (≈ 32 µg/mL) | 57.1 µM (≈ 32 µg/mL)
11 |  | 0.741 µM |  | 5.93 µM | 5.93 µM |  | 94.9 µM | CC(=O)NC[C@H]1CN(c2ccc(N3CCOCC3)c(F)c2)C(=O)O1 [Linezolid] | 0.25 ± 0.01 µg/mL | 8 ± 0.2 µg/mL | 23.7 µM | 32 ± 0.7 µg/mL | 94.9 µM | 2 ± 0.1 µg/mL |  | 

Row | SMILES | MIC [1, 13] | MIC [1, 14] | MIC ([1]; read-out: MIC against B. subtilis) | MIC [4, 15] | MIC [4, 16] | MIC ([4]; read-out: MIC against S. aureus) | MIC ([3]; ATCC15692, read-out: MIC against P. aeruginosa) | MIC [1, 7] | MIC [2, 8] | MIC [2, 9] | MIC [3, 10] | MIC [3, 11] | MIC [4, 12] | MIC [5] | MIC [6]
12 | O=C(NC[C@H]1CN(c2ccc(N3CCOCC3)c(F)c2)C(=O)O1)c1ccc(Cl)cc1 [Compound 5c, (S)-4-Chloro-N-((3-(3-fluoro-4-morpholinophenyl)-2-oxooxazolidin-5-yl)methyl) benzamide] | 4.61 to 5 µM | 4.61 µM |  |  |  |  |  | 2 ± 0.1 µg/mL | 32 ± 0.7 µg/mL | 73.8 µM | 32 ± 1.9 µg/mL | 73.8 µM | 8 ± 0.3 µg/mL |  | 18.4 µM (≈ 8 µg/mL)
